Data set [1] concerns Propionibacterium acnes (ATCC 11827). Briefly: Minimum inhibitory concentration (MIC) against Propionibacterium acnes (Test Example 1). In kind it is cell-based. The method, then: The minimum inhibitory concentration (MIC) of caryophyllene, cedrene, longifolene, and thujopsene obtained in Preparation Example against Propionibacterium acnes (ATCC 11827) was determined as follows.
The test compound was added to a 4.6% ABCM bouillon aqueous solution (prepared by dissolving 46 g of an ABCM bouillon medium produced by Eiken Kagaku K. K. in 1 l of distilled water) in a concentration of 100 μg/ml, and the solution was stepwise diluted two times with the same medium, followed by sterilization.
A 5 ml aliquot of the solution was put in a test tube and inoculated with 0.1 ml of the culture of Propionibacterium acnes which had been preliminarily cultured so as to have a cell density of 5×10^8 cells/ml. The system was static-cultured under anaerobic conditions at 37° C. for 48 hours, and the turbidity of the cultured system was measured at a wavelength of 600 nm to obtain MIC (μg/ml).

The subject of a further data set is several fungi. The following applies: Indian Perfumer, 28(2), 82-87 (1984); cited from earlier work.
The subject of data set [2] is Escherichia coli. The note with it: Indian Perfumer, 28(2), 82-87 (1984); cited from earlier work.
The next data set has as its system skin. The note with it: conventional use in acne vulgaris; cited from earlier work.
In the next data set the test system is various molds. The note with it: J. Antibact. Antifung. Agents, 8(1), 3-6 (1980); cited from earlier work.
The test system of the next data set is Bacillus subtilis. The following applies: J. Antibact. Antifung. Agents, 8(1), 3-6 (1980); cited from earlier work.
For data set [3], the system named is Escherichia coli. The following applies: J. Antibact. Antifung. Agents, 8(1), 3-6 (1980); cited from earlier work.
The next data set deals with Pseudomonas aeruginosa. The note with it: J. Antibact. Antifung. Agents, 8(1), 3-6 (1980); cited from earlier work.
[4] abbreviates: Cutibacterium acnes, ATCC11827, anaerobic, 37° C., 48 hours, turbidity at 600 nm, read-out: MIC.

In brackets after ≈: the same amount, converted by molar mass. Like-named read-outs stand apart in the source and are kept apart here.

Regarding `C=C1CC/C=C(/C)CC[C@@H]2[C@@H]1CC2(C)C` [Caryophyllene], 3.13 µg/mL (≈ 15.3 µM) was the least that counted as inhibitory in data set [1] (Cutibacterium acnes, ATCC11827, 48 h) (MIC). Also, the antimicrobial activity result in the data set with several fungi and with Escherichia coli [2] was “no activity” throughout.
With `[H]/N=C(\N/C(=N/[H])NCCCCCCNC(=N)NC(=N)Nc1ccc(Cl)cc1)Nc1ccc(Cl)cc1` [Chlorhexidine Gluconate], the side effects result with skin was “side effects of causing erythema or exfoliation, causing extreme skin roughening and skin irritation”.
As to `C=CCc1ccc(O)c(OC)c1` [Eugenol, reference compound], the MIC (as a rule, the lowest concentration that inhibits growth of the organism) in data set [1] (setting [4]) was found to be 50 µg/mL (≈ 304 µM). Also, the antimicrobial activity result with several fungi and with Escherichia coli [2] was “strong antimicrobial activity” each time.
Take `C=C1[C@H]2CC[C@@H]3[C@H]2C(C)(C)CCC[C@]13C` [Longifolene]: the minimal inhibitory concentration (MIC) in data set [1] (setting [4]) worked out at 1.57 µg/mL (≈ 7.68 µM).
With `CC1=CC[C@]2(C)CCCC(C)(C)[C@@]23C[C@@H]13` [Thujopsene], the MIC in data set [1] (setting [4]) was 6.25 µg/mL (≈ 30.6 µM). In addition, the antimicrobial activity entry was “any substantial antimicrobial activity on various molds, Bacillus subtilis, Escherichia coli, and Pseudomonas aeruginosa was not exhibited” in the data set on various molds; “any substantial antimicrobial activity on various molds, Bacillus subtilis, Escherichia coli, and Pseudomonas aeruginosa was not exhibited” in the data set with Bacillus subtilis; “any substantial antimicrobial activity on various molds, Bacillus subtilis, Escherichia coli, and Pseudomonas aeruginosa was not exhibited” in the data set on Escherichia coli [3]; “any substantial antimicrobial activity on various molds, Bacillus subtilis, Escherichia coli, and Pseudomonas aeruginosa was not exhibited” in the data set on Pseudomonas aeruginosa.
In data set [1] (anaerobic, 37° C., 48 hours, turbidity at 600 nm), Cedrene showed an MIC of 1.57 µg/mL.
